Literature values as cited in patent US20200085783A1 (priority 2013, published 2020).

How the values were obtained:
[1] = molecular target: NaK pump (Rattus norvegicus, UniProt P06685)
[2] = read-out: in vitro IC50 growth inhibitory effects

Row | SMILES | decrease in sensitivity of rodent compared to human cells [1] | IC50 [2] [µM]
1 | C[C@@H]1C[C@@]2(NC(=O)CS2)[C@]2(O)O[C@@H]3C[C@@]4(CO)[C@@H](CC[C@@H]5[C@@H]4CC[C@]4(C)[C@@H](C6=CC(=O)OC6)CC[C@]54O)C[C@H]3O[C@@H]2O1 [UNBS1450] | 100-1000 times | –
2 | C[C@@H]1O[C@@H](O[C@H]2C[C@@H](O)[C@]3(CO)[C@H]4[C@H](O)C[C@]5(C)[C@@H](C6=CC(=O)OC6)CC[C@]5(O)[C@@H]4CC[C@]3(O)C2)[C@H](O)[C@H](O)[C@H]1O [ouabain] | – | 0.01 to 0.1
